Measured values as given in patent publication US11261186B2, “Biaryl derivative as GPR120 agonist” (LG CHEM, LTD., priority 2014, dated 2022).

Target: T1, hGPR120 (Homo sapiens, UniProt Q5NUL3)
T1 construct: expressed in transfected cells; host or cells: CHO-K1
T1 sequence (Q5NUL3 1-361): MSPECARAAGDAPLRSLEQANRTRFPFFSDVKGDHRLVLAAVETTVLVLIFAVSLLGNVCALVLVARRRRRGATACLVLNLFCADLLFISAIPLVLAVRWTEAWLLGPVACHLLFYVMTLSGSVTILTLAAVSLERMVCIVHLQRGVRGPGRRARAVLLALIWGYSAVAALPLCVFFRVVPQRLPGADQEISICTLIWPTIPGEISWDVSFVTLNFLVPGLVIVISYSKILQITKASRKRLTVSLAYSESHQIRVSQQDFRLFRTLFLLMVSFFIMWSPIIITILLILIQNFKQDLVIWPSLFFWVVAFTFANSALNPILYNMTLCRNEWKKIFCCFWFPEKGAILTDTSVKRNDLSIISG
Test: Measurement of Activity of GPR120 Agonist (Cell-Based Assay), Calcium 5 dye fluorescence
Conditions: CHO-K1 cells expressing Ga16 and hGPR120
Summary of the method: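 Fluorescence increase (Ex 485 nm, Em 525 nm) after agonist addition was calculated as relative percent of the 1% DMSO-only signal. Cells were CHO-K1 stably carrying Gα16 plus human GPR120, dye-loaded for 1 h after overnight (18 h) culture.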

SMILES | EC50
CN(CCCC(=O)O)c1c(F)cc(-c2cccc(OCC3CC3)c2)cc1F [Example 524, 4-[(3′-cyclopropylmethoxy-3,5-difluoro-biphenyl-4-yl)-methyl-amino]-butyric acid] | < 0.2 µM
CN(CCCC(=O)O)c1c(F)cc(-c2cccc(OC3CCCC3)c2)cc1F [Example 525, 4-[(3′-cyclopentyloxy-3,5-difluoro-biphenyl-4-yl)-methyl-amino]-butyric acid] | < 0.2 µM
COc1ccc(-c2cc(F)c(OCCCC(=O)O)c(F)c2)cc1OCC1CC1 [Example 526, 4-(3′-cyclopropylmethoxy-3,5-difluoro-4′-methoxy-biphenyl-4-yloxy)-butyric acid] | < 0.2 µM
O=C(O)CCCOc1c(F)cc(-c2ccc(F)c(OCC3CC3)c2)cc1F [Example 527, 4-(3′-cyclopropylmethoxy-3,5,4′-trifluoro-biphenyl-4-yloxy)-butyric acid] | < 0.2 µM
O=C(O)CCCOc1c(F)cc(-c2cc(F)cc(OC3CCC3)c2)cc1F [Example 528, 4-(5′-cyclobutoxy-3,5,3′-trifluoro-biphenyl-4-yloxy)-butyric acid] | < 0.2 µM
Cc1ccc(OCC2CCC2)cc1-c1cc(F)c(N(C)CCCC(=O)O)c(F)c1 [Example 529, 4-[(5′-cyclobutylmethoxy-3,5-difluoro-2′-methyl-biphenyl-4-yl)-methyl-amino]-butyric acid] | 0.2 to 2 µM
Cc1ccc(OCC2CCC2)cc1-c1cc(F)c(OCCCC(=O)O)c(F)c1 [Example 530, 4-(5′-cyclobutylmethoxy-3,5-difluoro-2′-methyl-biphenyl-4-yloxy)-butyric acid] | < 0.2 µM
CN(CCCC(=O)O)c1c(F)cc(-c2ccc(Cl)c(OC3CCC3)n2)cc1F [Example 531, 4-{[4-(5-chloro-6-cyclobutoxy-pyridin-2-yl)-2,6-difluoro-phenyl]-methyl-amino}-butyric acid] | 0.2 to 2 µM
Cc1ccc(-c2cc(F)c(OCCCC(=O)O)c(F)c2)cc1OCC1CC1 [Example 532, 4-(3′-cyclopropylmethoxy-3,5-difluoro-4′-methyl-biphenyl-4-yloxy)-butyric acid] | < 0.2 µM
O=C(O)CCCOc1c(F)cc(-c2ccc(Cl)c(OC3CCC3)n2)cc1F [Example 533, 4-[4-(5-chloro-6-cyclobutoxy-pyridin-2-yl)-2,6-difluoro-phenoxy]-butyric acid] | 0.2 to 2 µM
O=C(O)CCCOc1c(F)cc(-c2ccc(Cl)c(OCC3CC3)c2)cc1F [Example 534, 4-(4′-chloro-3′-cyclopropylmethoxy-3,5-difluoro-biphenyl-4-yloxy)-butyric acid] | 0.2 to 2 µM
O=C(O)CCCOc1ccc(-c2cc(F)cc(OC3CCC3)c2)cc1F [Example 536, 4-(5′-cyclobutoxy-3,3′-difluoro-biphenyl-4-yloxy)-butyric acid] | < 0.2 µM
O=C(O)CCCCc1ccc(-c2cccc(OC3CCC3)n2)cc1F [Example 537, 5-[4-(6-cyclobutoxy-pyridin-2-yl)-2-fluoro-phenyl]-pentanoic acid] | < 0.2 µM
O=C(O)CCCOc1ccc(-c2cccc(OC3CCC3)n2)cc1F [Example 538, 4-[4-(6-cyclobutoxy-pyridin-2-yl)-2-fluoro-phenoxy]-butyric acid] | < 0.2 µM
O=C(O)CCCOc1ccc(-c2cccc(OCC3CCC3)n2)cc1F [Example 539, 4-[4-(6-cyclobutylmethoxy-pyridin-2-yl)-2-fluoro-phenoxy]-butyric acid] | 0.2 to 2 µM
O=C(O)CCCOc1ccc(-c2cccc(SC3CCC3)n2)cc1F [Example 540, 4-[4-(6-cyclobutylsulfanyl-pyridin-2-yl)-2-fluoro-phenoxy]-butyric acid] | < 0.2 µM
O=C(O)C1CC1COc1c(F)cc(-c2cc(F)cc(OC3CCC3)c2)cc1F (stereo not drawn) [Example 541, 2-(3′-cyclobutoxy-3,5,5′-trifluoro-biphenyl-4-yloxymethyl)-cyclopropanecarboxylic acid] | < 0.2 µM
Cc1cc(OC2CCC2)nc(-c2cc(F)c(OCC3CC3C(=O)O)c(F)c2)n1 (stereo not drawn) [Example 542, 2-[4-(4-cyclobutoxy-6-methyl-pyrimidin-2-yl)-2,6-difluoro-phenoxymethyl]-cyclopropanecarboxylic acid] | < 0.2 µM
O=C(O)C1CC1COc1c(F)cc(-c2nccc(OC3CCC3)n2)cc1F (stereo not drawn) [Example 543, 2-[4-(4-cyclobutoxy-pyrimidin-2-yl)-2,6-difluoro-phenoxymethyl]-cyclopropanecarboxylic acid] | < 0.2 µM
O=C(O)C1CC1COc1c(F)cc(-c2cccc(OC3CCC3)n2)cc1F (stereo not drawn) [Example 544, 2-[4-(6-cyclobutoxy-pyridin-2-yl)-2,6-difluoro-phenoxymethyl]-cyclopropanecarboxylic acid] | < 0.2 µM
O=C(O)C1CC1COc1c(F)cc(-c2nccc(OCC3CC3)n2)cc1F (stereo not drawn) [Example 545, 2-[4-(4-cyclopropylmethoxy-pyrimidin-2-yl)-2,6-difluoro-phenoxymethyl]-cyclopropanecarboxylic acid] | 0.2 to 2 µM
Cc1cc(OCC2CC2)nc(-c2cc(F)c(OCC3CC3C(=O)O)c(F)c2)n1 (stereo not drawn) [Example 546, 2-[4-(4-cyclopropylmethoxy-6-methyl-pyrimidin-2-yl)-2,6-difluoro-phenoxymethyl]-cyclopropanecarboxylic acid] | 0.2 to 2 µM
O=C(O)C1CC1COc1c(F)cc(-c2cncc(OCC3CC3)n2)cc1F (stereo not drawn) [Example 547, 2-[4-(6-cyclopropylmethoxy-pyrazin-2-yl)-2,6-difluoro-phenoxymethyl]-cyclopropanecarboxylic acid] | 0.2 to 2 µM
Cc1cc(OC2CCC2)nc(-c2cc(F)c(OCC3CC3C(=O)O)c(F)c2)c1 (stereo not drawn) [Example 548, 2-[4-(6-cyclobutoxy-4-methyl-pyridin-2-yl)-2,6-difluoro-phenoxymethyl]-cyclopropanecarboxylic acid] | < 0.2 µM
O=C(O)C1CC1COc1c(F)cc(-c2cccc(OCC3CC3)n2)cc1F (stereo not drawn) [Example 549, 2-[4-(6-cyclopropylmethoxy-pyridin-2-yl)-2,6-difluoro-phenoxymethyl]-cyclopropanecarboxylic acid] | < 0.2 µM
O=C(O)C1CC1COc1c(F)cc(-c2cncc(OC3CCC3)n2)cc1F (stereo not drawn) [Example 550, 2-[4-(6-cyclobutoxy-pyrazin-2-yl)-2,6-difluoro-phenoxymethyl]-cyclopropanecarboxylic acid] | < 0.2 µM
O=C(O)C1CC1COc1c(F)cc(-c2csc(OC3CCC3)n2)cc1F (stereo not drawn) [Example 551, 2-[4-(2-cyclobutoxy-thiazol-4-yl)-2,6-difluoro-phenoxymethyl]-cyclopropanecarboxylic acid] | 0.2 to 2 µM
O=C(O)C1CC1COc1c(F)cc(-c2cccc(OCC3CC3)n2)cc1Cl (stereo not drawn) [Example 552, 2-[2-chloro-4-(6-cyclopropylmethoxy-pyridin-2-yl)-6-fluoro-phenoxymethyl]-cyclopropanecarboxylic acid] | 0.2 to 2 µM
Cc1cc(OC2CCC2)nc(-c2cc(F)c(OCC3CC3C(=O)O)c(Cl)c2)n1 (stereo not drawn) [Example 553, 2-[2-chloro-4-(4-cyclobutoxy-6-methyl-pyrimidin-2-yl)-6-fluoro-phenoxymethyl]-cyclopropanecarboxylic acid] | 0.2 to 2 µM
O=C(O)C1CC1COc1c(F)cc(-c2cccc(OC3CCC3)n2)cc1Cl (stereo not drawn) [Example 554, 2-[2-chloro-4-(6-cyclobutoxy-pyridin-2-yl)-6-fluoro-phenoxymethyl]-cyclopropanecarboxylic acid] | < 0.2 µM
